The text below walks through data of the supplement of paper PMC4932681.

Common to all, as to assay: viability inhibition at highest dose (% inhibition); higher = more growth inhibition
The test system of assay [1] is BT-474 Tam1. To be noted: 4-OH-tamoxifen in medium 1 µM; 72 h. The procedure: (§1)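 Percent inhibition of viability (CellTiter-Glo, 72 h) at the highest tested concentration (D5), normalised to DMSO (0%) and 100 µM benzethonium chloride (100%). Resistant lines and the 'in 1µM tamoxifen' arms were tested in 1 µM 4-OH-tamoxifen.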
Assay [2] relates to BT-474 Tam2. The note with it: 4-OH-tamoxifen in medium 1 µM; 72 h. How it is done: as §1
The test system of assay [3] is BT-474. To be noted: 72 h. How it is done: as §1
For assay [4], the system named is MCF-7 Tam1. The note with it: 4-OH-tamoxifen in medium 1 µM; 72 h. The procedure:
as §1

Assay [5] deals with MCF-7. The note with it: 72 h. The procedure:
as §1

Assay [6] deals with T-47D Tam1. To be noted: 4-OH-tamoxifen in medium 1 µM; 72 h. The procedure: as §1
The test system of assay [7] is T-47D Tam2. The note with it: 4-OH-tamoxifen in medium 1 µM; 72 h. How it is done: as §1
The subject of assay [8] is T-47D. The note with it: 72 h. The procedure:
as §1

In assay [9] the test system is ZR-75-1 Tam1. The note with it: 4-OH-tamoxifen in medium 1 µM; 72 h. How it is done:
as §1

Assay [10] deals with ZR-75-1 Tam2. The note with it: 4-OH-tamoxifen in medium 1 µM; 72 h. The procedure:
as §1

Assay [11] concerns ZR-75-1. To be noted: 72 h. The procedure:
as §1

Take `C[C@]12CC[C@H](O)CC1=CC[C@@H]1[C@@H]2CC[C@]2(C)C(c3cccnc3)=CC[C@@H]12` [Abiraterone (CB-7598)] (drug 5000 nM): the “viability inhibition at highest dose” value in [1] is 6.31; in [2] it was -1; in [3] (4-OH-tamoxifen in medium 0 µM) it was -6.23; in assay [3] (4-OH-tamoxifen in medium 1 µM) it was -14.7; in [4] it was -8.38; in assay [5] (4-OH-tamoxifen in medium 0 µM) it was -13.6. For the same compound, the “viability inhibition at highest dose” value was -10.3 in assay [5] (4-OH-tamoxifen in medium 1 µM); -5.53 in assay [6]; -1.44 in [7]; -18.4 in assay [8] (4-OH-tamoxifen in medium 0 µM); -16.6 in [8] (4-OH-tamoxifen in medium 1 µM); -0.517 in assay [9]. The “viability inhibition at highest dose” value in assay [10] was -3.39; in assay [11] (4-OH-tamoxifen in medium 0 µM), -6.86; in assay [11] (4-OH-tamoxifen in medium 1 µM) it was -7.24.

On to `Cn1c(=O)c(F)c(Nc2ccc(I)cc2F)c2c(=O)n(C[C@@H](O)CO)cnc21` [TAK-733] (drug 1000 nM), for which the “viability inhibition at highest dose” value in [1] was 7.81; in [2] it was 14.3; in [3] (4-OH-tamoxifen in medium 0 µM), 3.01; in [3] (4-OH-tamoxifen in medium 1 µM), 18.7; in assay [4], 13.8; in assay [5] (4-OH-tamoxifen in medium 0 µM), 16.8. The “viability inhibition at highest dose” value in assay [5] (4-OH-tamoxifen in medium 1 µM) is 22.9; in assay [6], 25.4; in assay [7] it was 16.5; in [8] (4-OH-tamoxifen in medium 0 µM) it was -7.47; in assay [8] (4-OH-tamoxifen in medium 1 µM) it was -14.5; in assay [9], 0.97. Besides, the entries for the “viability inhibition at highest dose” value in assay [10], in assay [11] (4-OH-tamoxifen in medium 0 µM) and in assay [11] (4-OH-tamoxifen in medium 1 µM) were -5.15, -7.07 and -1.35, respectively.

Take `Cc1cc(Nc2nc(N[C@@H](C)c3ncc(F)cn3)ncc2Cl)[nH]n1` [AZD1480] (drug 1000 nM): the “viability inhibition at highest dose” value in assay [1] is 3.08; in [2] it was -2.54; in assay [3] (4-OH-tamoxifen in medium 0 µM), -2.51; in [3] (4-OH-tamoxifen in medium 1 µM) it was 8; in [4], 1.6; in assay [5] (4-OH-tamoxifen in medium 0 µM) it was 13.1. Also, the “viability inhibition at highest dose” value in assay [5] (4-OH-tamoxifen in medium 1 µM) is 6.46; in assay [6], 2.99; in [7], 3.94; in assay [8] (4-OH-tamoxifen in medium 0 µM), -12.1; in assay [8] (4-OH-tamoxifen in medium 1 µM), -7.24; in assay [9] it was -2.1. The “viability inhibition at highest dose” value was -3.72 in [10], -6.08 in assay [11] (4-OH-tamoxifen in medium 0 µM) and -11.4 in assay [11] (4-OH-tamoxifen in medium 1 µM).

Consider `CC1(C)CCC(c2ccc(Cl)cc2)=C(CN2CCN(c3ccc(C(=O)NS(=O)(=O)c4ccc(N[C@H](CCN5CCOCC5)CSc5ccccc5)c(S(=O)(=O)C(F)(F)F)c4)cc3)CC2)C1` [Navitoclax (ABT-263)] (drug 10000 nM), for which the “viability inhibition at highest dose” value in assay [1] turned out to be 33.3; in [2], 32.7; in [3] (4-OH-tamoxifen in medium 0 µM), 6.74; in assay [3] (4-OH-tamoxifen in medium 1 µM) it was 47.7; in assay [4] it was 5; in assay [5] (4-OH-tamoxifen in medium 0 µM) it was 27. Moreover, the “viability inhibition at highest dose” value in assay [5] (4-OH-tamoxifen in medium 1 µM) is 14.2; in [6], 38.4; in assay [7] it was 23.7; in assay [8] (4-OH-tamoxifen in medium 0 µM) it was 0.832; in [8] (4-OH-tamoxifen in medium 1 µM) it was 3.74; in assay [9] it was -1.41. For the same compound, the “viability inhibition at highest dose” value in assay [10] is -6.95; in [11] (4-OH-tamoxifen in medium 0 µM), -9.03; in assay [11] (4-OH-tamoxifen in medium 1 µM), -6.23.

Consider `Cc1ccc(NC(=O)c2ccc(CN3CCN(C)CC3)cc2)cc1Nc1nc(-c2cccnc2)cs1` [Masitinib] (drug 10000 nM), for which the “viability inhibition at highest dose” value in assay [1] was determined as 93.1; in [2], 87; in [3] (4-OH-tamoxifen in medium 0 µM), 21.2; in assay [3] (4-OH-tamoxifen in medium 1 µM), 71.6; in assay [4] it was 26.5; in [5] (4-OH-tamoxifen in medium 0 µM) it was 39.5. Also, the “viability inhibition at highest dose” value is 40.7 in assay [5] (4-OH-tamoxifen in medium 1 µM); 34.5 in assay [6]; 40.7 in assay [7]; 42 in assay [8] (4-OH-tamoxifen in medium 0 µM); 57.1 in assay [8] (4-OH-tamoxifen in medium 1 µM); 18.2 in assay [9]. Also, the entries for the “viability inhibition at highest dose” value in [10], in assay [11] (4-OH-tamoxifen in medium 0 µM) and in [11] (4-OH-tamoxifen in medium 1 µM) were 32.8, 9.35 and 20.3, respectively.

Regarding `COc1cc(Nc2ncc(F)c(Nc3ccc4c(n3)N(COP(=O)(O)O)C(=O)C(C)(C)O4)n2)cc(OC)c1OC` (drug 10000 nM), the “viability inhibition at highest dose” value in assay [1] is 55.4; in assay [2] it was 2.03; in assay [3] (4-OH-tamoxifen in medium 0 µM), -18; in assay [3] (4-OH-tamoxifen in medium 1 µM) it was 41.4; in assay [4], 47.8; in assay [5] (4-OH-tamoxifen in medium 0 µM), 34.7. In addition, the “viability inhibition at highest dose” value in assay [5] (4-OH-tamoxifen in medium 1 µM) came out at 70.4; in [6], 49.3; in assay [7], 47.1; in assay [8] (4-OH-tamoxifen in medium 0 µM), 40.2; in assay [8] (4-OH-tamoxifen in medium 1 µM), 36.8; in [9], 28.5. For the same compound, the “viability inhibition at highest dose” value in assay [10] is 31.6; in assay [11] (4-OH-tamoxifen in medium 0 µM), 7.12; in assay [11] (4-OH-tamoxifen in medium 1 µM), 20.8.

Regarding `Nc1nc(=O)c2c([nH]1)NCC(CNc1ccc(C(=O)N[C@@H](CCC(=O)O)C(=O)O)cc1)N2C=O` (mixture of isomers) [Folinic acid] (drug 990000 nM), the “viability inhibition at highest dose” value is 3.17 in assay [1]; 3.09 in assay [2]; 1.3 in [3] (4-OH-tamoxifen in medium 0 µM); -8.34 in assay [3] (4-OH-tamoxifen in medium 1 µM); -1.58 in [4]; 0.626 in assay [5] (4-OH-tamoxifen in medium 0 µM). In addition, the “viability inhibition at highest dose” value was 3.23 in [5] (4-OH-tamoxifen in medium 1 µM); -0.031 in assay [6]; -14.6 in assay [7]; 3.41 in [8] (4-OH-tamoxifen in medium 0 µM); -2.78 in [8] (4-OH-tamoxifen in medium 1 µM); 1.59 in [9]. Moreover, the entries for the “viability inhibition at highest dose” value in assay [10], in [11] (4-OH-tamoxifen in medium 0 µM) and in assay [11] (4-OH-tamoxifen in medium 1 µM) were 5.23, 3.64 and -3.47, respectively.

For `CCCCC/C=C/C=C1/C(=O)C=C[C@@H]1C/C=C\CCCC(=O)O` [15D-PGJ2] (drug 800 nM), the “viability inhibition at highest dose” value in [1] is -6.35; in assay [2], -6.87; in assay [3] (4-OH-tamoxifen in medium 0 µM) it was -7.22; in assay [3] (4-OH-tamoxifen in medium 1 µM) it was -14.5; in assay [4], -5.28; in [5] (4-OH-tamoxifen in medium 0 µM), -3.98. Also, the “viability inhibition at highest dose” value in assay [5] (4-OH-tamoxifen in medium 1 µM) is -2.34; in assay [6], 0.0444; in assay [7], 19.6; in [8] (4-OH-tamoxifen in medium 0 µM), -18.6; in assay [8] (4-OH-tamoxifen in medium 1 µM) it was -6.02; in assay [9], -1.15. In addition, the “viability inhibition at highest dose” value in assay [10] is -2.77; in [11] (4-OH-tamoxifen in medium 0 µM), -12.7; in assay [11] (4-OH-tamoxifen in medium 1 µM) it was 5.41.

For the compound `CNC(=O)c1cc(Oc2ccc(NC(=O)Nc3ccc(Cl)c(C(F)(F)F)c3)cc2)ccn1` [Sorafenib] (drug 1000 nM), the “viability inhibition at highest dose” value is 12.1 in assay [1]; -4.18 in assay [2]; -8.19 in assay [3] (4-OH-tamoxifen in medium 0 µM); -5.87 in [3] (4-OH-tamoxifen in medium 1 µM); -2.56 in assay [4]; 4.04 in assay [5] (4-OH-tamoxifen in medium 0 µM). Further, the “viability inhibition at highest dose” value was 5.41 in [5] (4-OH-tamoxifen in medium 1 µM); -11.3 in assay [6]; 4.98 in assay [7]; -13.3 in assay [8] (4-OH-tamoxifen in medium 0 µM); -7.58 in assay [8] (4-OH-tamoxifen in medium 1 µM); -2.44 in assay [9]. The results for the “viability inhibition at highest dose” value in assay [10], in [11] (4-OH-tamoxifen in medium 0 µM) and in [11] (4-OH-tamoxifen in medium 1 µM) were -2.71, -7.83 and 4.52, respectively.

Turning to `Cc1cn(-c2cc(NC(=O)c3ccc(C)c(Nc4nccc(-c5cccnc5)n4)c3)cc(C(F)(F)F)c2)cn1` [Nilotinib] (drug 10000 nM), the “viability inhibition at highest dose” value was 22.9 in assay [1]; 1.02 in assay [2]; -6.7 in assay [3] (4-OH-tamoxifen in medium 0 µM); 1.42 in assay [3] (4-OH-tamoxifen in medium 1 µM); -8.69 in assay [4]; 5.79 in [5] (4-OH-tamoxifen in medium 0 µM). Further, the “viability inhibition at highest dose” value in assay [5] (4-OH-tamoxifen in medium 1 µM) was 5.88; in [6], -0.169; in assay [7], 2.08; in [8] (4-OH-tamoxifen in medium 0 µM), -17.5; in assay [8] (4-OH-tamoxifen in medium 1 µM), -20.8; in [9], 2.47. Besides, the “viability inhibition at highest dose” value in assay [10] was -2.53; in assay [11] (4-OH-tamoxifen in medium 0 µM) it was -11.8; in assay [11] (4-OH-tamoxifen in medium 1 µM) it was -6.98.
